Twelve compounds from PubChem BioAssay (NCI) can be followed below.

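Values below derive from 48-hour exposures of cells grown in 96-well plates, with endpoints linearly interpolated between the two concentrations bracketing the appropriate inhibition level. The concentration for full growth arrest is given as TGI.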

Test systems include NCI-H460 lung; CAKI-1 renal; OVCAR-8 ovarian; HCT-116 colon; SK-MEL-28 melanoma; U251 CNS; NCI-H226 lung; UACC-62 melanoma; MDA-N; TK-10 renal; 786-0 renal.
Assay in all cases: NCI-60 cell line screen, 48 h

As to `CC12CCC(O)CC1CCC1C2CCC2(C)C(C(=O)CC(O)C(F)(F)F)CCC12` (configuration not stated), the TGI is more than 100 µM in the assay on NCI-H460 lung; more than 62.3 µM with CAKI-1 renal; more than 100 µM in the assay on OVCAR-8 ovarian; more than 100 µM with HCT-116 colon; more than 100 µM with SK-MEL-28 melanoma; more than 100 µM in the assay with U251 CNS. The TGI with NCI-H226 lung is more than 100 µM; in the assay with UACC-62 melanoma, more than 100 µM; with MDA-N it was more than 100 µM; with TK-10 renal, more than 100 µM; in the assay with 786-0 renal it was 21.6 µM.

Consider `O=[N+]([O-])/C(C(Cl)=C(Cl)Cl)=C(\N1CCCCC1)n1cncn1`, for which the TGI in the assay with NCI-H460 lung worked out at 72.1 µM; in the assay with CAKI-1 renal, 25.2 µM; in the assay with OVCAR-8 ovarian, 40.8 µM; in the assay with HCT-116 colon, 73.6 µM; in the assay on SK-MEL-28 melanoma it was 37.5 µM; with U251 CNS, 29.7 µM. Further, the TGI came to 40.3 µM in the assay on NCI-H226 lung; 33 µM in the assay with UACC-62 melanoma; 32.8 µM in the assay on MDA-N; 33.2 µM with TK-10 renal; 52.4 µM with 786-0 renal.

For `COc1ccc2c(cnc3c4cc(OC)c(OC)cc4ccc23)c1`, the TGI in the assay on NCI-H460 lung, in the assay with CAKI-1 renal, in the assay on OVCAR-8 ovarian, in the assay with HCT-116 colon, in the assay on SK-MEL-28 melanoma and in the assay with U251 CNS was more than 100 µM in each case. Further, the TGI in the assay with NCI-H226 lung, in the assay with UACC-62 melanoma, in the assay on MDA-N, with TK-10 renal and in the assay on 786-0 renal was more than 100 µM each time.

As for `CC(C(O)Cc1ccccc1)N(C)N=Nc1ccc([N+](=O)[O-])cc1` (configuration not stated), the TGI with NCI-H460 lung came to 32.3 µM; in the assay on CAKI-1 renal it was 51.8 µM; with OVCAR-8 ovarian, 33.7 µM; with HCT-116 colon, 30.2 µM; in the assay with SK-MEL-28 melanoma, 39.9 µM; in the assay with U251 CNS, 38.5 µM. For the same compound, the TGI in the assay with NCI-H226 lung was found to be 39.5 µM; with UACC-62 melanoma, 37.6 µM; with MDA-N it was 39.7 µM; in the assay on TK-10 renal, 47.7 µM; in the assay with 786-0 renal, 38.6 µM.

With `CCOc1ccc(/C=C2/C(=O)N=C(NC(C)=O)N2C)cc1`, the TGI in the assay with NCI-H460 lung, in the assay with CAKI-1 renal, with OVCAR-8 ovarian, in the assay on HCT-116 colon, in the assay with SK-MEL-28 melanoma and in the assay with U251 CNS was more than 100 µM in each case. Moreover, the TGI in the assay with NCI-H226 lung, in the assay on UACC-62 melanoma, in the assay on MDA-N, in the assay with TK-10 renal and in the assay with 786-0 renal was more than 100 µM throughout.

Turning to `O=C1NC(=O)C(CC2CCCCCCCCCCC2=O)C(=O)N1` (configuration not stated), the TGI in the assay with NCI-H460 lung, in the assay with CAKI-1 renal, in the assay with OVCAR-8 ovarian, with HCT-116 colon, with SK-MEL-28 melanoma and in the assay with U251 CNS was more than 100 µM in each case. Moreover, the TGI with NCI-H226 lung, in the assay on UACC-62 melanoma, in the assay with MDA-N, in the assay on TK-10 renal and with 786-0 renal was more than 100 µM in each case.

Take `C=C([C@@]1(O)C[C@H]2[C@H](CCC2(OC)OC)[C@@H]2c3ccccc3O[C@@H]21)[Si](C)(C)C`: the TGI in the assay with NCI-H460 lung, in the assay with CAKI-1 renal, in the assay with OVCAR-8 ovarian, with HCT-116 colon, in the assay with SK-MEL-28 melanoma and in the assay with U251 CNS was more than 100 µM in each case. In addition, the TGI with NCI-H226 lung, with UACC-62 melanoma, in the assay with MDA-N, in the assay with TK-10 renal and with 786-0 renal was more than 100 µM each time.

For `C#C[C@]1(O)CC[C@H]2[C@@H]3CCC4=C/C(=N/OC(=O)c5cccc6c(=O)c7ccccc7[nH]c56)CC[C@@H]4[C@H]3CC[C@@]21C`, the TGI with NCI-H460 lung, in the assay with CAKI-1 renal, with OVCAR-8 ovarian, with HCT-116 colon, with SK-MEL-28 melanoma and in the assay on U251 CNS was more than 100 µM in each case. The TGI with NCI-H226 lung, in the assay on UACC-62 melanoma, with MDA-N, with TK-10 renal and in the assay on 786-0 renal was more than 100 µM in each case.

As for `CC1CCCC(CC(=O)O)(CC(=O)O)C1` (configuration not stated), the TGI in the assay on NCI-H460 lung, in the assay with CAKI-1 renal, in the assay with OVCAR-8 ovarian, in the assay on HCT-116 colon, with SK-MEL-28 melanoma and with U251 CNS was more than 100 µM each time. Besides, the TGI with NCI-H226 lung, in the assay on UACC-62 melanoma, in the assay on MDA-N, in the assay on TK-10 renal and with 786-0 renal was more than 100 µM each time.

In the case of `CC(=O)O[C@H]1CC[C@@]2(C)C(=CC[C@H]3[C@@H]4C[C@H](N5CCOCC5)[C@H](OC(C)=O)[C@@]4(C)CC[C@@H]32)C1`, the TGI with NCI-H460 lung, with CAKI-1 renal, in the assay with OVCAR-8 ovarian, with HCT-116 colon, with SK-MEL-28 melanoma and in the assay on U251 CNS was more than 100 µM throughout. For the same compound, the TGI in the assay on NCI-H226 lung, in the assay on UACC-62 melanoma, in the assay with MDA-N, in the assay on TK-10 renal and in the assay with 786-0 renal was more than 100 µM each time.

As to `O=C(O)c1ccc(OCc2nc3cc(C(F)(F)F)ccc3nc2-c2ccccc2)cc1`, the TGI in the assay on NCI-H460 lung is more than 100 µM; in the assay on CAKI-1 renal, 19.6 µM; with OVCAR-8 ovarian, more than 100 µM; with HCT-116 colon it was more than 100 µM; with SK-MEL-28 melanoma, more than 100 µM; in the assay with U251 CNS, more than 100 µM. In addition, the TGI in the assay with NCI-H226 lung, in the assay with UACC-62 melanoma, in the assay on MDA-N, in the assay on TK-10 renal and in the assay with 786-0 renal was more than 100 µM each time.

In the case of `O=C1c2cccnc2-c2nccc3c2c1nc1cc(Br)ccc13`, the TGI stood at 0.304 µM in the assay on NCI-H460 lung; 0.591 µM in the assay on CAKI-1 renal; 0.388 µM in the assay with OVCAR-8 ovarian; 0.0762 µM in the assay with HCT-116 colon; 0.325 µM in the assay with SK-MEL-28 melanoma; 0.288 µM in the assay on U251 CNS. Also, the TGI in the assay on NCI-H226 lung is 0.855 µM; in the assay with UACC-62 melanoma, 0.373 µM; in the assay with MDA-N, 0.732 µM; in the assay with TK-10 renal, 2.33 µM; in the assay with 786-0 renal it was 0.188 µM.
